Data reported in paper PMC11369174, “Proteome-scale characterisation of motif-based interactome rewiring by disease mutations” (Molecular Systems Biology, 2024).
“Also recorded” adds a separate entry of the source.

Legend:
ABL1 SH3 = ABL1 SH3 (Homo sapiens, UniProt P00519); experiment: GenVar_HD2 ProP-PD phage selection, ABL1 SH3; format: binding; conditions: for mutant_found: True/False if a mutated peptide was found in selection; for wildtype_found: True/False if a wild type peptide was found in selection; for mutation_effect_on_PPI: bait-mutation pair categorized as diminished, enhanced or no_effect; for max_wildtype_confidence: maximum confidence for an enriched wild type peptide; for confidence: confidence of the enriched peptide; for overlap: overlapping peptides; for replicates: replicates in which the peptide was found; for max_mutant_confidence: maximum confidence for an enriched mutated peptide
KPNA7 ARM major = KPNA7 ARM major (Homo sapiens, UniProt A9QM74); experiment: FP displacement assay, KPNA7 ARM major pocket; format: binding; conditions: for Kd: read-out: KD-values [µM] + SEM
Description: (§1) FP experiments were performed, as previously described (Kliche et al, [2021], [2023]), on an iD5 plate reader (Molecular devices) using black half-area non-binding 96-well plates (Corning). In order to calculate the FP signal in millipolarisation (mP), the FITC-labelled peptides were excited at 485 nm and the emitted light was measured at 535 nm in two different angles. For saturation experiments, a dilution series of the respective protein domains was generated (25 µL) and 10 nM fluorescein isothiocyanate (FITC)-labelled peptide (diluted in 50 mM sodium phosphate buffer pH 7.4, 0.05% Tween) were added in an end volume of 50 µL. A control experiment titrating GST was performed for the binding of the NEDD4 WW2 domain, since the GST-tagged construct was used for affinity measurements. For fitting the data, the buffer-corrected reduced values were plotted in GraphPad PRISM against the respective protein concentration and the KD-values were obtained by fitting against the quadratic equation (Gianni et al, [2005]).
(§2) The buffer-corrected reduced values were subsequently plotted against the logarithmic unlabelled peptide concentration to derive the IC50 values by using the sigmoidal dose-response (x is logarithmic) fit in GraphPad PRISM and calculate the KD values as described previously (Nikolovska-Coleska et al, [2004]).

KPNA4 ARM major = KPNA4 ARM major (Homo sapiens, UniProt O00629); experiment: FP displacement assay, KPNA4 ARM major pocket; format: binding; conditions: from FP displacement KD values, KPNA4 ARM major pocket
Description: as §1, §2

KPNA4 ARM = experiment: GenVar_HD2 ProP-PD phage selection, KPNA4 ARM; format: binding, human; conditions: for Mutation enrichment score: bait KPNA4 ARM, from NGS counts of overlapping wild-type/mutant library peptide pairs, positive = mutation enhances, negative = disrupts binding; for max_promiscuity / max_specificity: bait-prey protein level, bait_accession O00629
NEDD4 WW2 = NEDD4 WW2 (Homo sapiens, UniProt P46934); experiment: FP displacement assay, NEDD4 WW2; format: binding; conditions: read-out: KD-values [µM] + SEM
Description: For saturation experiments, a dilution series of the respective protein domains was generated (25 µL) and 10 nM fluorescein isothiocyanate (FITC)-labelled peptide (diluted in 50 mM sodium phosphate buffer pH 7.4, 0.05% Tween) were added in an end volume of 50 µL. A control experiment titrating GST was performed for the binding of the NEDD4 WW2 domain, since the GST-tagged construct was used for affinity measurements.
If the raw values indicated a FITC-contamination of the unlabelled peptide, the data was excluded and a new batch of peptide was ordered for remeasuring the affinity.

MAP1LC3B ATG8 [1] = biological target: T1, MAP1LC3B ATG8 (Homo sapiens, UniProt Q9GZQ8); experiment: FP displacement assay, MAP1LC3B ATG8; format: binding; conditions: for Kd: read-out: KD-values [µM] + SEM
Description: as §1, §2

MAP1LC3B ATG8 [2] = biological target: T1, MAP1LC3B ATG8; experiment: GenVar_HD2 ProP-PD phage selection, MAP1LC3B ATG8; conditions: bait MAP1LC3B ATG8; from NGS counts of overlapping wild-type/mutant library peptide pairs; positive = mutation enhances, negative = disrupts binding
Description: Phage display screens were performed according to previous reports (Benz et al, [2022]; Ali et al, [2020]) and for four consecutive selection rounds with five to six replicates per bait protein domain against the […] library.
On the first day, both bait (15 µg in 100 µL PBS) and control protein domains (GST and MBP; 10 µg in 100 µL PBS) were immobilised on a 96-well MaxiSorb plate (Nunc) overnight in the cold room while shaking. Additionally, a 10 mL culture of Omnimax E. coli bacteria supplemented with 10 µg/mL tetracycline was incubated overnight at 37 °C at 200 rpm.
First, protein solutions were removed from both control and bait protein domain plates and the wells were blocked with 0.5% BSA in PBS (200 µL/well) for 1 h in the cold room while shaking. After that, three Omnimax E. coli cultures were started supplemented with either 30 µg/mL kanamycin, 100 µg/mL carbenicillin and 10 µg/mL tetracycline and incubated at 37 °C and 200 rpm. The two first cultures served as a means to check for helper phage contamination (kanamycin) and phages with library phagemid contamination (carbenicillin) of the culture used for elution of the phages during selections. The tetracycline Omnimax E. coli culture was grown until OD at 600 nm reached 0.6–0.8.
Naïve phage libraries were precipitated (10 µL/well of bait protein domain) by diluting the library tenfold with PBS, adding one-fourth of 20% […] and 400 mM NaCl and incubating the mixture for 15 min on ice. Subsequently, phages were spun down for 15 min at 13,000 × g and resuspended in 0.5% BSA and 0.05% Tween-20 in PBS (100 µL/well). Control domain plates were washed four times with 200 µL 0.05% Tween-20 in PBS, 100 µL of the naïve phage library (10^11 phages/mL) were added to every well and the plates incubated for 1 h in the cold room while shaking. Next, protein bait domain plates were washed four times with 0.05% Tween-20 in PBS and the phage solution from the control protein plate was transferred to the respective wells on the protein bait domain plate. […]

MAP1LC3B ATG8 [3] = biological target: T1, MAP1LC3B ATG8; experiment: Isothermal titration calorimetry, MAP1LC3B ATG8; format: binding; set-up: S∆T / ∆H: unit not given here; conditions: ITC; for N (stoichiometry of the interaction): N value from the fit or set if necessary
[4] = phage selection, bait ABL1_SH3__P00519_60_121
[5] = bait domain-prey protein level, bait ABL1_SH3__P00519_60_121
[6] = KD (isothermal titration calorimetry), 50 mM sodium phosphate pH 7.4, 1 mM DTT, peptide titrated in tenfold excess, 16 injections

KPNA7 ARM major, sequence (A9QM74 66-488 limits assumed): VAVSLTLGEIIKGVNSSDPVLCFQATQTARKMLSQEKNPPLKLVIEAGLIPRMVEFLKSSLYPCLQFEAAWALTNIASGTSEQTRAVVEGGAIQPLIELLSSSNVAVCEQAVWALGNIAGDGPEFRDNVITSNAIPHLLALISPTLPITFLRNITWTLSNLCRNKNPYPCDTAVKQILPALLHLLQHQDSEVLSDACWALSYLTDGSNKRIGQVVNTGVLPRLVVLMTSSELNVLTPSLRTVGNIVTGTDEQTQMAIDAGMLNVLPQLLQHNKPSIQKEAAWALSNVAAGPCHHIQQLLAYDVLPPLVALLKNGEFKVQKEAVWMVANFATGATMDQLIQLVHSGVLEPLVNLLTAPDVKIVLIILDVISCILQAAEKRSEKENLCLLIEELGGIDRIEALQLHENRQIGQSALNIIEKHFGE
ABL1 SH3, sequence (P00519 60-121): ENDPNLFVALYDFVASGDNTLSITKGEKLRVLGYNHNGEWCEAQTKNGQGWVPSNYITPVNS
KPNA4 ARM major, sequence (O00629 68-487): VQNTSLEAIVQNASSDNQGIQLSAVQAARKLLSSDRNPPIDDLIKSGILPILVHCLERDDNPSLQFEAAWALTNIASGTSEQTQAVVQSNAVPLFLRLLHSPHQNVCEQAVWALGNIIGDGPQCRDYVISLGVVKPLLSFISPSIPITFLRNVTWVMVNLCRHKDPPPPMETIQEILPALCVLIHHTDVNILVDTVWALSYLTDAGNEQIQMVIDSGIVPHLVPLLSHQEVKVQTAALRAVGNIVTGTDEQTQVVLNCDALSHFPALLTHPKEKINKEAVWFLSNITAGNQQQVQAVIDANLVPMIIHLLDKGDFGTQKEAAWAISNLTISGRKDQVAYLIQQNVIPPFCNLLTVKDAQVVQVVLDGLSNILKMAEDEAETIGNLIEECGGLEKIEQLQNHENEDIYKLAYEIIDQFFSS
NEDD4 WW2, sequence (P46934 765-803 limits assumed): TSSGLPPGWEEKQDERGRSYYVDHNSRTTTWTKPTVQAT

LSPVRSPTPPAAGFQPLLNGRLVPVPPTTPAPGVQLDVEAL [B1AK53.S719R]
mutant_found (ABL1 SH3): FALSE | wildtype_found (ABL1 SH3): TRUE | mutation_effect_on_PPI (ABL1 SH3; bait ABL1_SH3__P00519_60_121): no_effect | max_wildtype_confidence (ABL1 SH3): 2

EPRFSPPPSPPGPAMP
promiscuity (ABL1 SH3; [4]): 5 | specificity (ABL1 SH3; [4]): 0.995 | confidence (ABL1 SH3; [4]): 4 | overlap (ABL1 SH3; [4]): 1 | replicates (ABL1 SH3; [4]): 6

Ac-EPSEKRTRLEEEIVEY-NH2 [CDC45_152-166 wild-type]
Kd (KPNA7 ARM major): 6.6 ± 0.7 µM

Ac-LDLDDRWQFKRSQLLD-NH2 [ABRAXAS1_349-364 R361Q]
weakened binding, mutant vs wild-type peptide (KPNA4 ARM major): 400 fold | Mutation enrichment score (KPNA4 ARM): −6

Ac-YPRMPEAARPVAPAPAAP-NH2 [TP53_64-80 P72R]
Mutation enrichment score (ABL1 SH3; bait ABL1 SH3, from NGS counts of overlapping wild-type/mutant library peptide pairs, positive = mutation enhances, negative = disrupts binding): −6

KPPEEPGQCPAPEELPLFPPTGEPSLSPLLGEPALSEPGEP [O14686.P886T]
mutant_found (ABL1 SH3): FALSE | wildtype_found (ABL1 SH3): TRUE | mutation_effect_on_PPI (ABL1 SH3; bait ABL1_SH3__P00519_60_121): diminished | max_wildtype_confidence (ABL1 SH3): 3

HYLDLLALLLDSSEPRFSPPLSPPGPCMPEVFLEAAVALIQ [O15287.P386L]
mutant_found (ABL1 SH3): TRUE | wildtype_found (ABL1 SH3): TRUE | mutation_effect_on_PPI (ABL1 SH3; bait ABL1_SH3__P00519_60_121): no_effect | max_mutant_confidence (ABL1 SH3): 2 | max_wildtype_confidence (ABL1 SH3): 4

EPRFSPPHSPPGPAMP
promiscuity (ABL1 SH3; [4]): 2 | specificity (ABL1 SH3; [4]): 0.9643 | confidence (ABL1 SH3; [4]): 3 | overlap (ABL1 SH3; [4]): 1 | replicates (ABL1 SH3; [4]): 5

HYLDLLALLLDSSEPRFSPPHSPPGPCMPEVFLEAAVALIQ [O15287.P386H]
mutant_found (ABL1 SH3): TRUE | wildtype_found (ABL1 SH3): TRUE | mutation_effect_on_PPI (ABL1 SH3; bait ABL1_SH3__P00519_60_121): no_effect | max_mutant_confidence (ABL1 SH3): 3 | max_wildtype_confidence (ABL1 SH3): 4

EGR2
max_promiscuity (ABL1 SH3; [5]): 5 | max_specificity (ABL1 SH3; [5]): 0.973

Ac-PIPGTPPPNYDSLRLQ-NH2 [SCNN1B_611-626 wild-type]
Kd (NEDD4 WW2): 39 ± 3 µM

PLFPPPGEPSLSPLLG
promiscuity (ABL1 SH3; [4]): 2 | specificity (ABL1 SH3; [4]): 0.9995 | confidence (ABL1 SH3; [4]): 3 | overlap (ABL1 SH3; [4]): 0 | replicates (ABL1 SH3; [4]): 6

LDSSEPRFSPPLSPPG
promiscuity (ABL1 SH3; [4]): 1 | specificity (ABL1 SH3; [4]): 1 | mean_counts_% (ABL1 SH3; phage selection, bait ABL1_SH3__P00519_60_121, NGS counts): 0.0009534% | confidence (ABL1 SH3; [4]): 2 | overlap (ABL1 SH3; [4]): 1 | replicates (ABL1 SH3; [4]): 1

CC(=O)NCC(=O)N[C@@H](CC(=O)O)C(=O)N[C@@H](CC(=O)O)C(=O)N[C@@H](CC(=O)O)C(=O)N[C@@H](Cc1c[nH]c2ccccc12)C(=O)N[C@H](C(=O)N[C@@H](Cc1c[nH]cn1)C(=O)N[C@@H](CC(C)C)C(=O)N[C@@H](CO)C(=O)N[C@@H](CO)C(=O)N[C@@H](CCCCN)C(=O)N[C@@H](CCC(=O)O)C(=O)N[C@H](C(=O)N[C@@H](CC(=O)O)C(=O)N1CCC[C@H]1C(=O)N[C@@H](CO)C(N)=O)C(C)C)[C@@H](C)O [SQSTM1_334-349 wild-type]
Kd (MAP1LC3B ATG8 [1]): 0.5 ± 0.1 µM

CC(=O)NCC(=O)N[C@@H](CC(=O)O)C(=O)N[C@@H](CC(=O)O)C(=O)N[C@@H](CC(=O)O)C(=O)N[C@@H](Cc1c[nH]c2ccccc12)C(=O)N[C@H](C(=O)N[C@@H](Cc1c[nH]cn1)C(=O)N[C@@H](CC(C)C)C(=O)N[C@@H](CO)C(=O)N[C@@H](CO)C(=O)N[C@@H](CCCCN)C(=O)N[C@@H](CCC(=O)O)C(=O)N[C@H](C(=O)N[C@@H](CC(=O)O)C(=O)N[C@@H](CC(C)C)C(=O)N[C@@H](CO)C(N)=O)C(C)C)[C@@H](C)O [SQSTM1_334-349 P348L]
effect of the mutation on binding (in words) (MAP1LC3B ATG8 [1]; FP affinity measurements, MAP1LC3B ATG8): the mutation has no impact on binding; also recorded: did not affect the binding | Kd (MAP1LC3B ATG8 [1]): 0.6 ± 0.1 µM | Mutation enrichment score (MAP1LC3B ATG8 [2]): 7.6

Ac-EDEVYETVVDTSEEDS-NH2 [BRCA2_292-307 wild-type]
Kd (MAP1LC3B ATG8 [1]): 3.12 ± 0.08 µM | Ka (MAP1LC3B ATG8 [3]; replicate 1): 9160 | S∆T (MAP1LC3B ATG8 [3]; replicate 1): -1.5 | ∆H (MAP1LC3B ATG8 [3]; replicate 1): -5832 | N (stoichiometry of the interaction) (MAP1LC3B ATG8 [3]; replicate 1): 0.70 | Ka (MAP1LC3B ATG8 [3]; replicate 2): 55000 | S∆T (MAP1LC3B ATG8 [3]; replicate 2): 13.7 | ∆H (MAP1LC3B ATG8 [3]; replicate 2): -2389 | N (stoichiometry of the interaction) (MAP1LC3B ATG8 [3]; replicate 2): 0.684 | Kd (MAP1LC3B ATG8 [3]; average of the Kd [µM] column, wild-type technical duplicate, mutant technical triplets, read-out: Average Kd): 64 µM | Kd (MAP1LC3B ATG8 [3]; [6]): 20 to 100 µM

O14647
max_promiscuity (KPNA4 ARM): 11 | max_specificity (KPNA4 ARM): 0.5779

Ac-EPSEKCTRLEEEIVEY-NH2 [CDC45_152-166 R157C]
weakened binding, mutant vs wild-type peptide (KPNA4 ARM major): 70 fold | loss of binding, mutant vs wild-type peptide (KPNA7 ARM major; from FP displacement KD values, KPNA7 ARM major pocket): 50 fold | Kd (KPNA7 ARM major): 380 ± 15 µM | Mutation enrichment score (KPNA4 ARM): −7

A7E2Y1
max_promiscuity (KPNA4 ARM): 10 | max_specificity (KPNA4 ARM): 0.7829

Ac-EDEVYEILRDTSEEDS-NH2 [BRCA2_292-307 T298I/V299L/V300R]
Kd (MAP1LC3B ATG8 [1]): 0.52 ± 0.01 µM | Ka (MAP1LC3B ATG8 [3]; replicate 1): 388000 | S∆T (MAP1LC3B ATG8 [3]; replicate 1): 3.04 | ∆H (MAP1LC3B ATG8 [3]; replicate 1): -6718 | N (stoichiometry of the interaction) (MAP1LC3B ATG8 [3]; replicate 1): 0.744 | Ka (MAP1LC3B ATG8 [3]; replicate 2): 524000 | S∆T (MAP1LC3B ATG8 [3]; replicate 2): 3.49 | ∆H (MAP1LC3B ATG8 [3]; replicate 2): -6766 | N (stoichiometry of the interaction) (MAP1LC3B ATG8 [3]; replicate 2): 0.685 | Ka (MAP1LC3B ATG8 [3]; replicate 3): 3280000 | S∆T (MAP1LC3B ATG8 [3]; replicate 3): 8.75 | ∆H (MAP1LC3B ATG8 [3]; replicate 3): -6280 | N (stoichiometry of the interaction) (MAP1LC3B ATG8 [3]; replicate 3): 0.649 | Kd (MAP1LC3B ATG8 [3]; [6]): 2 µM | Mutation enrichment score (MAP1LC3B ATG8 [2]): 15

KPPEEPGQCPAPEELPLFPPSGEPSLSPLLGEPALSEPGEP [O14686.P886S]
mutant_found (ABL1 SH3): TRUE | wildtype_found (ABL1 SH3): TRUE | mutation_effect_on_PPI (ABL1 SH3; bait ABL1_SH3__P00519_60_121): no_effect | max_mutant_confidence (ABL1 SH3): 1 | max_wildtype_confidence (ABL1 SH3): 3

NGSLVPVPPTTPAPGV
promiscuity (ABL1 SH3; [4]): 2 | specificity (ABL1 SH3; [4]): 0.8421 | confidence (ABL1 SH3; [4]): 2 | overlap (ABL1 SH3; [4]): 0 | replicates (ABL1 SH3; [4]): 4
